# System: Streptococcus pneumoniae ATCC 6305
# Assay: MIC by dilution method on microplates (NCCLS M7-A2)
# Assay type: cell-based
# Conditions: in vitro
# Method: Minimal inhibitory concentrations (MIC, in μg/ml) are determined by dilution method on microplates according to recommendations of National Committee for Clinical Laboratory Standards (NCCLS, M7-A2). So e.g. the minimal inhibitory concentration on Streptococcus pneumoniae ATCC 6305 for the compounds from Examples 1 and 4 is 2 μg/ml and for compounds from Examples 2 and 3 is 1 μg/ml. Thus, they can be used for disinfection of rooms, surgical instruments and people as well as therapeutic agents in the treatment of infective diseases in animals, specially mammals, or humans that are caused by a wide spectrum of gram-positive bacteria, microorganisms or generally pathogenic microorganisms which are sensitive to the compounds of the formula 1. For this purpose the above compounds or their pharmaceutically acceptable salts with acids may be used orally in usual doses from 0.2 mg/kg body weight per day to about 250 mg/kg/day, most frequently from 5-50 mg/kg/day, or parenterally in the form of subcutaneous or intramuscular injections.
row,SMILES,minimal inhibitory concentration (MIC) [µg/mL]
1,"CCC1OC(=O)C(C)C(OC2CC(C)(OC)C(O)C(C)O2)C(C)C(OC2OC(C)CC(N(C)C)C2O)C(C)(O)CC(C)CN(C(=O)NS(=O)(=O)c2ccc(Cl)cc2)C(C)C(O)C1(C)O (stereo not shown) [Example 1, 9-Deoxo-9-dihydro-9a-N-[N′-(4-chlorobenzenesufonyl)carbamoyl]-9a-aza-9a-homoerythromycin A]",2
2,"CCC1OC(=O)C(C)C(OC2CC(C)(OC)C(O)C(C)O2)C(C)C(OC2OC(C)CC(N(C)C)C2O)C(C)(O)CC(C)CN(C(=O)NS(=O)(=O)c2ccc(C)cc2)C(C)C(O)C1(C)O (stereo not shown) [Example 2, 9-Deoxo-9-dihydro-9a-N-[N′-(p-toluenesulfonyl)carbamoyl]-9a-aza-9a-homoerythromycin A]",1
3,"CCC1OC(=O)C(C)C(OC2CC(C)(OC)C(O)C(C)O2)C(C)C(OC2OC(C)CC(N(C)C)C2O)C(C)(O)CC(C)CN(C(=O)NS(=O)(=O)c2ccccc2C)C(C)C(O)C1(C)O (stereo not shown) [Example 3, 9-Deoxo-9-dihydro-9a-N-[N′-(o-toluenesulfonyl)carbamoyl]-9a-aza-9a-homoerythromycin A]",1
4,"CCC1OC(=O)C(C)C(OC2CC(C)(OC)C(O)C(C)O2)C(C)C(OC2OC(C)CC(N(C)C)C2O)C(C)(O)CC(C)CN(C(=O)NS(=O)(=O)c2ccccc2)C(C)C(O)C1(C)O (stereo not shown) [Example 4, 9-Deoxo-9-dihydro-9a-N-[N′-(benzenesulfonyl)carbamoyl]-9a-aza-9a-homoerythromycin A]",2

# Reference: patent US6852702B2, “9a-N-[N′-(phenylsulfonyl)carbamoyl] derivatives of 9-deoxo-9-dihydro-9a-aza-9a-homoerythromycin A and of 5-O-desosaminyl-9-deoxo-9-dihydro-9a-aza-9a-homoerythronolide A” (Pliva D.D., priority 2002, dated 2005)
